Among the test systems are HCT-116; MDA-MB-231; MDA-MB-435; SNB-19; HCT-15; RXF 393; MDA-N; DU-145; HT-29; MCF7; SF-295; SF-539; SK-OV-3; SR; Malme-3M; LOX IMVI; A498; SK-MEL-2; CAKI-1.
Common to all, as to test: DTP human tumour cell line panel, 48 h

The structures appear in SMILES notation.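 Interpolation was linear, between the two tested concentrations surrounding the appropriate level; five concentrations were tested over 48 hours in 96-well plates. GI50: concentration for 50% inhibition of growth.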 The source made the active and inactive calls. Cut-off read from the data, not from the text of the source: active = GI50 up to about 1.1 µM and inactive = higher. Non-standard residues stand in square brackets, D forms with d. Residues, ends and D or L forms follow the SMILES beside them. ξ: configuration not given here. *: point of attachment. ξHyp = O=C(O)C1CC(O)CN1; Cbz = O=C(OCc1ccccc1)*

As usually defined, the GI50 is the concentration giving 50% growth inhibition. With `CCNC1=C(NC(=O)c2ccc(F)cc2)C(=O)c2ccccc2C1=O`, the GI50 is 30.3 µM (inactive) in the assay with HCT-116; 44.8 µM (inactive) in the assay with MDA-MB-231; 18.2 µM (inactive) with MDA-MB-435; > 100 µM (inactive) with SNB-19; 30.5 µM with HCT-15; 29.4 µM (inactive) in the assay with RXF 393. The GI50 in the assay on MDA-N was 33.6 µM (inactive); with DU-145 it was > 100 µM (inactive); in the assay with HT-29, 22.2 µM (inactive); in the assay on MCF7, 30.3 µM (inactive); with SF-295 it was 52.6 µM (inactive); with SF-539, 72.1 µM (inactive). The GI50 in the assay with SK-OV-3 is 18.5 µM (inactive); with SR, 48.4 µM (inactive); with Malme-3M, 19.2 µM (inactive).
Turning to `CCn1c(=O)c2c(=O)[nH][nH]c2c2ccccc21`, the GI50 in the assay on HCT-116 is > 100 µM (inactive); in the assay with MDA-MB-231, > 100 µM (inactive); in the assay on MDA-MB-435, > 100 µM (inactive); in the assay with SNB-19, > 100 µM (inactive); in the assay with HCT-15, greater than 100 µM; in the assay with MDA-N, > 100 µM (inactive). Further, the GI50 in the assay with DU-145, in the assay on HT-29, in the assay with MCF7, with LOX IMVI, in the assay with SF-295 and in the assay on SF-539 was > 100 µM (inactive) throughout. Besides, the GI50 in the assay with SR, in the assay with A498 and with Malme-3M was > 100 µM (inactive) throughout.
On to `C[n+]1c2ccccc2c(C(=O)NC(CCCNC(=N)N)C(=O)O)c2ccccc21` (stereo unspecified), for which the GI50 is > 100 µM (inactive) in the assay on HCT-116; > 100 µM (inactive) with MDA-MB-231; > 100 µM (inactive) in the assay on MDA-MB-435; > 100 µM (inactive) in the assay on SNB-19; greater than 100 µM in the assay on HCT-15; > 100 µM (inactive) in the assay on MDA-N. The GI50 in the assay with DU-145, in the assay on HT-29, with MCF7, with LOX IMVI, in the assay on SK-MEL-2 and in the assay with SF-295 was > 100 µM (inactive) in each case. The GI50 in the assay with SF-539 was > 100 µM (inactive); in the assay on SK-OV-3, > 100 µM (inactive); in the assay on SR, 1.31 µM (inactive); with A498 it was > 100 µM (inactive); in the assay with Malme-3M, > 100 µM (inactive).
For `CCOC(=O)CCC(NC(=O)c1ccc(Oc2nc3ccccc3nc2C(=O)OCC)cc1)C(=O)OCC` (stereo unspecified), the GI50 was 72.3 µM (inactive) in the assay on HCT-116; 40.4 µM (inactive) in the assay on MDA-MB-231; > 100 µM (inactive) in the assay with MDA-MB-435; 85.5 µM (inactive) in the assay on SNB-19; greater than 100 µM in the assay with HCT-15; > 100 µM (inactive) in the assay on CAKI-1. Further, the GI50 with MDA-N, in the assay with DU-145, in the assay on HT-29, with MCF7, in the assay on LOX IMVI and in the assay with SK-MEL-2 was > 100 µM (inactive) throughout. Moreover, the GI50 with SF-295, in the assay with SF-539 and in the assay on SR was > 100 µM (inactive) in each case.
`O=C1C(Cl)C(c2cccc(Cl)c2)N1c1ccc(-n2c(S)nc3ccccc3c2=O)cc1` (stereo unspecified): the GI50 was 24.4 µM (inactive) in the assay with HCT-116; 20 µM (inactive) in the assay with MDA-MB-231; 15.7 µM (inactive) in the assay with MDA-MB-435; 2.47 µM (inactive) in the assay on SNB-19; 1.02 µM in the assay on HCT-15; 4.08 µM (inactive) in the assay with RXF 393. Moreover, the GI50 in the assay on CAKI-1 is 34.7 µM (inactive); with MDA-N, 19.1 µM (inactive); in the assay on DU-145, 35.2 µM (inactive); with HT-29, 18.8 µM (inactive); in the assay on MCF7 it was 14.7 µM (inactive); in the assay with LOX IMVI, 13.9 µM (inactive). For the same compound, the GI50 in the assay with SF-295 was 19.2 µM (inactive); with SF-539 it was 20 µM (inactive); in the assay with SK-OV-3 it was 20.6 µM (inactive); in the assay on SR it was 10.7 µM (inactive); with Malme-3M it was 40.2 µM (inactive).
`CCn1c(-c2ccccc2)cs/c1=N\C(P(=O)(O)O)P(=O)(O)O`: the GI50 in the assay with HCT-116 was > 100 µM (inactive); in the assay with MDA-MB-231, > 100 µM (inactive); in the assay with MDA-MB-435, > 100 µM (inactive); with SNB-19, > 100 µM (inactive); in the assay with HCT-15, greater than 100 µM; in the assay on RXF 393, > 100 µM (inactive). Besides, the GI50 in the assay with CAKI-1, in the assay with MDA-N, in the assay on DU-145, in the assay with HT-29, in the assay with MCF7 and in the assay with LOX IMVI was > 100 µM (inactive) throughout. The GI50 with SF-295, in the assay with SF-539, in the assay on SK-OV-3, in the assay with SR, in the assay on A498 and with Malme-3M was > 100 µM (inactive) each time.
As to `CC(C)(C)OC(=O)C1CCC/C1=N/Nc1ccc([N+](=O)[O-])cc1[N+](=O)[O-]` (stereo unspecified), the GI50 in the assay on HCT-116 is 21.4 µM (inactive); in the assay with MDA-MB-231, 20 µM (inactive); with MDA-MB-435, 21.2 µM (inactive); in the assay on SNB-19, 41.5 µM (inactive); with HCT-15 it was 39.4 µM; in the assay on RXF 393 it was 33.2 µM (inactive). Further, the GI50 was 39.4 µM (inactive) in the assay on CAKI-1; 30.8 µM (inactive) in the assay with MDA-N; 47.2 µM (inactive) in the assay with DU-145; 36.5 µM (inactive) in the assay with HT-29; 30 µM (inactive) in the assay on MCF7; 17.7 µM (inactive) with LOX IMVI. Besides, the GI50 was 25 µM (inactive) with SF-295; 43 µM (inactive) with SK-OV-3; 26.1 µM (inactive) in the assay on SR; 13 µM (inactive) in the assay with A498; 65.5 µM (inactive) with Malme-3M.
Take `COC(=O)C1Cc2cc3c(cc2C1=O)CCCC3` (stereo unspecified): the GI50 in the assay with HCT-116 is 42.3 µM (inactive); in the assay on MDA-MB-231, 63.7 µM (inactive); with MDA-MB-435, > 100 µM (inactive); with SNB-19 it was 56.5 µM (inactive); in the assay on HCT-15, 43.2 µM; in the assay with CAKI-1, 54.1 µM (inactive). The GI50 in the assay with MDA-N was > 100 µM (inactive); in the assay on DU-145 it was 45.8 µM (inactive); in the assay with HT-29 it was 61.8 µM (inactive); in the assay on MCF7, 42 µM (inactive); in the assay with LOX IMVI, 67 µM (inactive); with SK-MEL-2 it was > 100 µM (inactive). The GI50 was 62.1 µM (inactive) with SF-295; > 100 µM (inactive) in the assay on SF-539; 27.1 µM (inactive) in the assay with SK-OV-3; 30.3 µM (inactive) with SR; 53.5 µM (inactive) in the assay with A498; > 100 µM (inactive) with Malme-3M.
Turning to `CC12OC3(C(O)C1O)C(C(=O)O[C@H]3CO[Si](C)(C)C(C)(C)C)C2S(=O)(=O)c1ccccc1` (stereo partly specified), the GI50 in the assay with HCT-116 is 61.5 µM (inactive); with MDA-MB-231, 60.3 µM (inactive); in the assay with MDA-MB-435, 34.4 µM (inactive); with SNB-19 it was 40 µM (inactive); with HCT-15, 33.7 µM; in the assay with MDA-N it was 61.4 µM (inactive). Moreover, the GI50 was > 100 µM (inactive) in the assay on DU-145; 33.3 µM (inactive) in the assay on HT-29; 36.1 µM (inactive) in the assay on MCF7; 18.7 µM (inactive) in the assay with LOX IMVI; 88.7 µM (inactive) with SK-MEL-2; 43.1 µM (inactive) with SF-295. In addition, the GI50 in the assay with SF-539 is 58.1 µM (inactive); in the assay with SK-OV-3, > 100 µM (inactive); in the assay with SR it was 41.9 µM (inactive); in the assay with A498, > 100 µM (inactive).
As for `Cc1cccc(O)c1-c1nnc(CCCCCCCCc2nnc(-c3c(C)cccc3O)n2N)n1N`, the GI50 in the assay on HCT-116 is 72.3 µM (inactive); in the assay with MDA-MB-231, > 62.2 µM (inactive); with MDA-MB-435, > 69.5 µM (inactive); in the assay with SNB-19 it was 41.2 µM (inactive); in the assay with HCT-15, greater than 100 µM; in the assay with CAKI-1 it was > 100 µM (inactive). Further, the GI50 in the assay on MDA-N is > 64.6 µM (inactive); in the assay on DU-145 it was > 100 µM (inactive); in the assay on HT-29 it was > 100 µM (inactive); with MCF7, 55 µM (inactive); in the assay with LOX IMVI, 45.2 µM (inactive); in the assay with SK-MEL-2 it was 38.3 µM (inactive). In addition, the GI50 in the assay with SF-295 was 51.6 µM (inactive); in the assay with SF-539, > 96.4 µM (inactive); with SK-OV-3, > 60.5 µM (inactive); in the assay on SR it was 19.1 µM (inactive); in the assay with A498 it was > 100 µM (inactive); with Malme-3M it was > 85.3 µM (inactive).
As to `CC(C)C1CC[C@H](C)C[C@@H]1OC(=O)C(C(=O)O[C@H]1C[C@@H](C)CCC1C(C)C)C(O)[C@@H]1OC(C)(C)O[C@H]1C1COC(C)(C)O1` (stereo partly specified), the GI50 in the assay with HCT-116 is 11.7 µM (inactive); in the assay with MDA-MB-231, 17 µM (inactive); with MDA-MB-435, 16.6 µM (inactive); in the assay with SNB-19, 16.3 µM (inactive); in the assay on HCT-15, 20.7 µM; with RXF 393 it was 14.7 µM (inactive). The GI50 is 16.3 µM (inactive) in the assay on CAKI-1; 18.5 µM (inactive) in the assay on MDA-N; 18.8 µM (inactive) in the assay with DU-145; 13.4 µM (inactive) in the assay with HT-29; 8.13 µM (inactive) in the assay on MCF7; 16.8 µM (inactive) in the assay on LOX IMVI. The GI50 in the assay on SK-MEL-2 is 19.4 µM (inactive); in the assay on SF-295 it was 16.1 µM (inactive); with SF-539, 26.8 µM (inactive); in the assay with SK-OV-3, 26.8 µM (inactive); in the assay with SR it was 9.62 µM (inactive); with Malme-3M it was 17.1 µM (inactive).
As for `NC(=O)CNC(=O)C1CC(O)CN1C(=O)OCc1ccccc1` (stereo unspecified) (Cbz-[ξHyp]-Gly-NH2), the GI50 was > 100 µM (inactive) in the assay with HCT-116; > 100 µM (inactive) in the assay with MDA-MB-231; > 100 µM (inactive) in the assay with MDA-MB-435; > 100 µM (inactive) in the assay on SNB-19; greater than 100 µM with HCT-15; > 100 µM (inactive) with RXF 393. The GI50 in the assay with MDA-N, in the assay on DU-145, in the assay with HT-29, in the assay with MCF7, with LOX IMVI and with SK-MEL-2 was > 100 µM (inactive) throughout. The GI50 in the assay on SF-295, in the assay with SK-OV-3, in the assay on SR, in the assay on A498 and in the assay on Malme-3M was > 100 µM (inactive) in each case.

The values above are taken from ChEMBL document CHEMBL1201862, “PubChem BioAssay data set” (2004).
